According to US8138183B2, “Morpholino pyrimidine derivatives used in diseases linked to mTOR kinase and/or PI3K” (AstraZeneca AB, priority 2007, dated 2012):
Where two headings read alike, the source gives them in different places.

Key:
recombinant mTOR = recombinant mTOR (Homo sapiens, UniProt P42345); test: In Vitro mTOR Kinase Assay (Echo), Test (a)(ii) (AlphaScreen); assay type: biochemical; conditions: Echo acoustic dispensing
Protocol: (a)(ii) In Vitro mTOR Kinase Assay (Echo)
The assay used AlphaScreen technology (Gray et al., Analytical Biochemistry, 2003, 313: 234-245) to determine the ability of test compounds to inhibit phosphorylation by recombinant mTOR.
The HEK293 FLAG-tagged mTOR (1362-2549) stable cell line was routinely maintained at 37° C. with 5% CO2 up to a confluency of 70-90% in Dulbecco's modified Eagle's growth medium (DMEM; Invitrogen Limited, Paisley, UK Catalogue No. 41966-029) containing 10% heat-inactivated foetal calf serum (FCS; Sigma, Poole, Dorset, UK, Catalogue No. F0392), 1% L-glutamine (Gibco, Catalogue No. 25030-024) and 2 mg/ml Geneticin (G418 sulfate; Invitrogen Limited, UK Catalogue No. 10131-027). Following expression in the mammalian HEK293 cell line, expressed protein was purified using the FLAG epitope tag using standard purification techniques.
Aliquots ([…]) of each compound dilution were acoustically […] using a Labcyte Echo 550 into a well of a Greiner 384-well low volume (LV) white polystyrene plate (Greiner Bio-one). A […] mixture of recombinant purified mTOR enzyme, 1 μM biotinylated peptide substrate (Biotin-Ahx-[…]NH2; Bachem UK Ltd), ATP (20 μM) and a buffer solution [comprising Tris-HCl pH7.4 buffer (50 mM), EGTA (0.1 mM), bovine serum albumin (0.5 mg/mL), DTT (1.25 mM) and manganese chloride (10 mM)] was incubated at room temperature for […].
These assay solutions were incubated for 2 hours at room temperature.
Each reaction was stopped by the addition of […] of a mixture of EDTA (50 mM), bovine serum albumin (BSA; 0.5 mg/mL) and Tris-HCl pH7.4 buffer (50 mM) containing
p70 S6 Kinase (T389) 1A5 Monoclonal Antibody (Cell Signalling Technology, Catalogue No. 9206B) and AlphaScreen Streptavidin donor and Protein A acceptor beads (200 ng; Perkin Elmer, Catalogue No. 6760002B and 6760137R respectively) were added and the assay plates were left overnight at room temperature in the dark. The resultant signals arising from laser light excitation at 680 nm were read using a Packard Envision instrument.
The phosphorylated biotinylated peptide that is associated with AlphaScreen Streptavidin donor beads forms a complex with the p70 S6 Kinase (T389) 1A5 Monoclonal Antibody that is associated with Alphascreen Protein A acceptor beads. Upon laser light excitation at 680 nm, the donor bead : acceptor bead complex produces a signal that can be measured. Accordingly, the presence of mTOR kinase activity results in an assay signal. In the presence of an mTOR kinase inhibitor, signal strength is reduced. mTOR enzyme inhibition for a given test compound was expressed as an IC50 value.

[1] = tested on: phosphorylation of Serine 473 in Akt; test: In Vitro phospho-Ser473 Akt Assay, Test (c); assay type: cell-based; conditions: MDA-MB-468 human breast adenocarcinoma cells, measured on two occasions, read-out: IC50 versus Serine 473 in Akt
Protocol: (c) In Vitro phospho-Ser473 Akt Assay
This assay determines the ability of test compounds to inhibit phosphorylation of Serine 473 in Akt as assessed using Acumen Explorer technology (Acumen Bioscience Limited), a plate reader that can be used to rapidly quantitate features of images generated by laser-scanning.
A MDA-MB-468 human breast adenocarcinoma cell line (LGC Promochem, Teddington, Middlesex, UK, Catalogue No. HTB-132) was routinely maintained at 37° C. with 5% CO2 up to a confluency of 70-90% in DMEM containing 10% heat-inactivated FCS and 1% L-glutamine.
For the assay, the cells were detached from the culture flask using ‘Accutase’ (Innovative Cell Technologies Inc., San Diego, Calif., USA; Catalogue No. AT104) using standard tissue culture methods and resuspended in media to give 1.7×10^5 cells per mL. […]
All subsequent aspiration and wash steps were carried out using a Tecan 96 well plate washer (aspiration speed 10 mm/sec). […] An aliquot of PBS (50 μl) was added to each well and the plates were sealed with black plate sealers and the fluorescence signal was detected and analysed.
Fluorescence dose response data obtained with each compound were analysed and the degree of inhibition of Serine 473 in Akt was expressed as an IC50 value.

Chain of recombinant mTOR (P42345 1362-2549): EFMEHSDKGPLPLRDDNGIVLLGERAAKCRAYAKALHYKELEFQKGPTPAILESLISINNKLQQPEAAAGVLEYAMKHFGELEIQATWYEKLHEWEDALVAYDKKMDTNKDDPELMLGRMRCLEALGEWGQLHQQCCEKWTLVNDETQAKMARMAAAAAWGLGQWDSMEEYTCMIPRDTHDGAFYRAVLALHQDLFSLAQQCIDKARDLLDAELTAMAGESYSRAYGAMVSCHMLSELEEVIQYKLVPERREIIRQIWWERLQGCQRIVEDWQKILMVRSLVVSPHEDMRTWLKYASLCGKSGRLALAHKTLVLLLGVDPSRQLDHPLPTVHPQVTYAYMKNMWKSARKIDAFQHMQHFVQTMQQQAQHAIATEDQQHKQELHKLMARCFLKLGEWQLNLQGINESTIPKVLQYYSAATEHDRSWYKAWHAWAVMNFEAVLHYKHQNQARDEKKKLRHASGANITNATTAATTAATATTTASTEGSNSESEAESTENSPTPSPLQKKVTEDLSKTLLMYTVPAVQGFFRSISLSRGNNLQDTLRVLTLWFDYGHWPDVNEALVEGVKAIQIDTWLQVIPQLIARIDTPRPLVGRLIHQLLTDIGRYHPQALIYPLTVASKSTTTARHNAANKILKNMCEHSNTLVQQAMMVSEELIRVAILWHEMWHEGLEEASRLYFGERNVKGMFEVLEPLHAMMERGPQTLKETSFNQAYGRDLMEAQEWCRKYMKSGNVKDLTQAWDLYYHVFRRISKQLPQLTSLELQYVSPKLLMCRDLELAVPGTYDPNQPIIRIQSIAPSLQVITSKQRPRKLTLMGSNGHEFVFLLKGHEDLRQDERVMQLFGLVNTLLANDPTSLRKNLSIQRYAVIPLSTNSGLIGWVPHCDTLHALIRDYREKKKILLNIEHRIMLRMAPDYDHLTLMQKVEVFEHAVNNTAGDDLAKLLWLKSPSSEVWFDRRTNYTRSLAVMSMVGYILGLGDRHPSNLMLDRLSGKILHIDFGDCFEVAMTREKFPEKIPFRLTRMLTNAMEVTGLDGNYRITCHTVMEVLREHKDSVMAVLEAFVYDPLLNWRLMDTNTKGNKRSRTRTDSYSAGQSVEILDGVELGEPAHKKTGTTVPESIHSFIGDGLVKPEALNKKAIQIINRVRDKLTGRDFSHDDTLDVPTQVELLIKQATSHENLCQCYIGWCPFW

## C[C@H]1COCCN1c1cc(CS(C)(=O)=O)nc(-c2ccc(NC(=S)Nc3ccccc3)cc2)n1 [Example 1b, 1-[4-[4-[(3S)-3-methylmorpholin-4-yl]-6-(methylsulfonylmethyl)pyrimidin-2-yl]phenyl]-3-phenyl-thiourea]
Recombinant mTOR
  IC50: 81.6 nM
[1]; Homo sapiens, MDA-MB-468, Test (c)
  IC50: 1930 nM
[1]; Test (c)
  IC50: 1740 nM
